Measurements taken from patent publication US20250034186A1, “ANTIVIRAL COMPOUNDS” (priority 2020, published 2025).

Key:
RSV A2 = assay: RSV NHBE EC50, RSV A2 antiviral assay; format: cell-based; conditions: for EC50: human respiratory syncytial virus, 96 h, RSV A2 in NHBE cells, 4 days
Description: Normal human bronchial epithelial (NHBE) cells were purchased from Lonza (Walkersville, MD, Cat #CC-2540) and cultured in Bronchial Epithelial Growth Media (BEGM) (Lonza, Walkersville, MD, Cat #CC-3170). The cells were passaged 1-2 times per week to maintain <80% confluency. The NHBE cells were discarded after 6 passages in culture.
To conduct the RSV A2 antiviral assay, NHBE cells were plated in 96-well plates at a density of 7,500 cells per well in BEGM and allowed to attach overnight at 37° C. Following attachment, 100 μL of cell culture media was removed and 3-fold serially diluted compound was added using a Hewlett-Packard D300 Digital Dispenser. The final concentration of DMSO was normalized to 0.05%. Following compound addition, the NHBE cells were infected by the addition of 100 μL of RSV A2 at a titer of 1×10^4.5 tissue culture infectious doses/mL in BEGM and then incubated at 37° C. for 4 days. The NHBE cells were then allowed to equilibrate to 25° C. and cell viability was determined by removing 100 μL of culture medium and adding 100 μL of Cell-Titer Glo viability reagent. The mixtures were incubated for 10 minutes at 25° C., and the luminescence signal was quantified on an Envision luminescence plate reader.

HEp-2 cytotoxicity assay = format: cell-based; conditions: human, HEp-2 cells (uninfected), 4-5 days
Description: Cytotoxicity of the compound of Formula I and compounds 1, 2, and 6 was determined in uninfected cells using the cell viability reagent in a similar fashion as described before for other cell types (Cihlar et al., Antimicrob Agents Chemother. 2008, 52(2):655-65.). HEp-2 (1.5×10^3 cells/well) and MT-4 (2×10^3 cells/well) cells were plated in 384-well plates and incubated with the appropriate medium containing 3-fold serially diluted compound ranging from 15 nM to 100,000 nM. Cells were cultured for 4-5 days at 37° C. Following the incubation, the cells were allowed to equilibrate to 25° C., and cell viability was determined by adding Cell-Titer Glo viability reagent. The mixture was incubated for 10 min, and the luminescence signal was quantified using an Envision plate reader. Untreated cell and cells treated at 2 μM puromycin (Sigma, St. Louis, MO) serve as 100% and 0% cell viability control, respectively.

RSV A strain A2 = assay: RSV HAE EC50, intracellular RSV RNA by real-time PCR; format: cell-based; conditions: for EC50: human respiratory syncytial virus, 72 h, RSV A2 in HAE cells, air-liquid interface, 3 days, RSV RNA
Description: HAE cells are cultured at the air-liquid interface and have an apical side that is exposed to the air and a basal side that is in contact with the medium. Prior to experimentation, HAE were removed from their agar-based shipping packaging and were acclimated to 37° C./5% CO2 overnight in 1 ml of HAE Assay medium (AIR-100-MM, Mattek Corp). HAE were prepared for infection by washing the apical surface twice with 400 μL of PBS (either utilizing direct pipetting methods or by running each transwell through a trough containing PBS) to remove the mucus layer. Apical chambers were drained of PBS and tapped gently onto absorbent material to remove as much PBS as possible. After washing, the cells were transferred to fresh HAE maintenance media containing 4-fold serially diluted compound, delivered to the basal side of the cell monolayer, and apically infected with 100 μL of a 1:600 dilution of RSV A strain A2 1000× stock (ABI, Columbia, MD, Cat #10-124-000) in HAE assay medium for 3 hours at 37° C. in 5% CO2. The virus inoculum was removed and the apical surface of the cells was washed 3 times with PBS using either method previously described. The cells were then cultured in the presence of compound for 3 days at 37° C. Following the incubation, total RNA was extracted from the HAE cells using a MagMAX-96 Viral RNA isolation kit (Applied Biosystems, Foster City, CA, Cat #AM1836) and intracellular RSV RNA was quantified by real-time PCR. Approximately 25 ng of purified RNA was added to a PCR reaction mixture that contained 0.9 μM RSV N Forward and RSV N Reverse primers, 0.2 μM RSV N Probe and 1× Taqman RNA-to-Ct 1-Step Kit (Applied Biosystems, Foster City, CA, Cat #4392938). RNA levels were normalized using a Taqman GAPDH control primer set (Applied Biosystems, Foster City, CA, Cat #402869). Real-Time PCR Primers and Probe Used in the RSV A2 HAE Antiviral Assay: RSV N Forward […] (SEQ ID NO: 2), RSV N Reverse […] (SEQ ID NO: 3), RSV N Probe FAM-[…]-BHQ (SEQ ID NO: 4).

SAEC cytotoxicity assay = format: cell-based; conditions: human, small airway epithelial cells (SAEC)
Description: Human Small Airway Epithelial cells (SAEC) were purchased from Lonza (Walkersville, MD, Cat #CC-2547) and cultured in supplemented Small Airway Epithelial Cell Growth Medium (SAGM) (lonza, Walkersville, MD, Cat #CC-3118). The cells were passaged 1-2 times per week to maintain <80% confluency per manufacturer's protocol. The SAEC cells were discarded after 5 passages in culture.
Following attachment, 3-fold serially diluted compound was added using a Hewlett-Packard D300 Digital Dispenser (Hewlett Packard, Palo Alto, CA) in triplicate. The final concentration of DMSO was normalized to 1.0%. Following compound addition, NHBE or SAEC cells were incubated at 37° C. for 5 days. The NHBE or SAEC cells were then allowed to equilibrate to 25° C. and cell viability was determined by removing 100 μL of culture medium and adding 100 μL of Cell-Titer Glo viability reagent (Promega, Madison, WI). The mixtures were incubated for 10 minutes at 25° C., and the luminescence signal was quantified on an Envision luminescence plate reader (PerkinElmer, Waltham, MA). Percent viability values were determined by normalization to 1.0% DMSO-only control wells with background luminescent signal subtracted out.

[1] = Stability assay in cynomolgus monkey hepatic S9 fractions; format: in vitro ADME; conditions: 37° C., NADPH and UDPGA, read-out: Cyno HepS9 t1/2
Description: For S9 stability, the compounds were incubated at 2 μM in cynomolgus monkey or human hepatic S9 fractions for up to 90 min at 37° C. in the presence of NADPH and UDPGA (Phase I and Phase II cofactor, Sigma-Aldrich). At desired time points following compound addition, samples were quenched with 9 volumes of an aqueous solution containing internal standard, 50% acetonitrile and 25% methanol. Sample plates were centrifuged at 3000 g for 30 min, and 10 μL of the resulting solution was analyzed by LC-MS/MS. Data (analyte to internal standard peak area ratio) were plotted on a semi log scale and fitted using an exponential fit. The half-life (T1/2) was determined assuming first order kinetics.

In the case of `CCOC(=O)[C@H](C)NP(=O)(OC[C@@]1(C#N)O[C@@H](c2ccc3c(N)ncnn23)[C@H](O)[C@@H]1O)Oc1ccccc1` (stereo partly drawn) [Compound 1, reference compound], the EC50 (RSV A2) is reported as 549 nM and the CC50 (HEp-2 cytotoxicity assay) is reported as over 91500 nM.

Compound `CCC(CC)COC(=O)[C@H](C)NP(=O)(OC[C@@]1(C#N)O[C@@H](c2ccc3c(N)ncnn23)[C@H](O)[C@@H]1O)Oc1ccccc1` (stereo partly drawn) [Compound 2, reference compound] has an EC50 (RSV A2) of 75 nM, an EC50 (RSV A strain A2) of 186 nM and a CC50 (HEp-2 cytotoxicity assay) of over 95400 nM. It also gave a CC50 at 5 days (SAEC cytotoxicity assay) of 28300 nM and a half-life at 2 μM [1] of 3 min.

In the case of `CCC(CC)COC(=O)[C@H](C)N[P@](=O)(OC[C@@]1(C#N)O[C@@H](c2ccc3c(N)ncnn23)[C@H](O)[C@@H]1O)Oc1ccccc1` [Compound 6, 2-ethylbutyl ((S)-(((2R,3S,4R,5S)-5-(4-aminopyrrolo[2,1-f][1,2,4]triazin-7-yl)-2-cyano-3,4-dihydroxytetrahydrofuran-2-yl)methoxy)(phenoxy)phosphoryl)alaninate], the “times as potent as compound 7, RSV NHBE” value (RSV A2; EC50 ratio vs compound 7) is reported as 0.7 times, the EC50 (RSV A2) is reported as 127 nM and the EC50 (RSV A strain A2) is reported as 110 nM. The CC50 (HEp-2 cytotoxicity assay) was over 95000 nM, the CC50 at 5 days (SAEC cytotoxicity assay) was 27200 nM and the half-life at 2 μM [1] was 2 min.

In the case of `C[C@H](N[P@](=O)(OC[C@@]1(C#N)O[C@@H](c2ccc3c(N)ncnn23)[C@H](O)[C@@H]1O)Oc1ccccc1)C(=O)OC1CCCCC1` [Formula I, cyclohexyl ((S)-(((2R,3S,4R,5S)-5-(4-aminopyrrolo[2,1-f][1,2,4]triazin-7-yl)-2-cyano-3,4-dihydroxytetrahydrofuran-2-yl)methoxy)(phenoxy)phosphoryl)-L-alaninate], the “more potent than the compound of Formula Ib, RSV NHBE” value (RSV A2; EC50 ratio vs Formula Ib) is reported as 5.1, the “more potent relative to compound 1, RSV NHBE” value (RSV A2; EC50 ratio vs compound 1) is reported as about 4.4 and the “times more potent relative to compound 3, RSV NHBE” value (RSV A2; EC50 ratio vs compound 3) is reported as “about 9.3 times”. The “times more potent relative to compound 4, RSV NHBE” value (RSV A2; EC50 ratio vs compound 4) was “about 7.1 times”, the “times more potent relative to compound 5, RSV NHBE” value (RSV A2; EC50 ratio vs compound 5) was “about 10.0 times” and the EC50 (RSV A2) was 124 nM. The “times more potent relative to compound 2, RSV HAE” value (RSV A strain A2; EC50 ratio vs compound 2) was “about 8.1 times”, the EC50 (RSV A strain A2) was 23 nM and the CC50 (HEp-2 cytotoxicity assay) was over 100000 nM. The CC50 at 5 days (SAEC cytotoxicity assay) was 123000 nM and the half-life at 2 μM [1] was 26 min.
